Laboratory results from ChEMBL document CHEMBL1201862, “PubChem BioAssay data set” (2004).
Activity calls are given as the source filed them.

Columns and labels:
[1] = viability loss in HepG2 hepatoma cells – cell-based, cherry-picks, set 5, cytotoxicity control, dose response (AID 1053118); type: functional
[2] = viability loss in A549 lung cancer cells – cell-based, cherry-picks, […], cytotoxicity control, dose response (AID 1053119); type: functional
[3] = inhibition of fibronectin matrix deposition – AH1F cells, Alexa488-fibronectin fluorescence, cherry-pick, set 2, dose response (AID 1117283); type: functional, cell-based
[4] = Dd2 parasite growth inhibition in erythrocytes – SYBR Green, dry powder samples, set 4, dose response (AID 1159572); type: functional, cell-based
[5] = rise of 2N DNA cells, HeLa – IC50, dose response (AID 1117349); type: functional, cell-based
[6] = CellTiter-Glo luminescence survival assay, SW480 colon tumor line, concentration-response curve, half-maximal inhibitory concentration (AID 1117338); type: functional
[7] = RKO cell viability reduction, dose response, CellTiter-Glo luminescence (AID 1117322); type: functional
[8] = cytotoxicity toward HCT116 cells – cell-based, CellTiter-Glo luminescence, IC50, dose response (AID 1117332); type: functional; settings: HCT-116
[9] = SNU-C1 cell viability reduction, dose response, CellTiter-Glo luminescence (AID 1117323); type: functional, cell-based
[10] = rise of 4N DNA cells, HeLa – IC50, dose response (AID 1117351); type: functional, cell-based
[11] = cytotoxicity toward HT-29 cells – cell-based, CellTiter-Glo luminescence, IC50, dose response (AID 1117330); type: functional
[12] = Reduced DLD-1 viability, concentration-response, CellTiter-Glo luminescence (AID 1117352); type: functional
[13] = HCT116 cell viability decrease, GSK3B pretreatment – CellTiter-Glo, IC50, dose response (AID 1117339); type: functional; settings: HCT-116
[14] = target: Heat shock protein HSP 90-alpha (Homo sapiens, UniProt P07900); type: functional, organism-based
Vero [15] = experiment: cells; type: functional, cell-based; settings: Chlorocebus sabaeus
HSP90 = HSP90 (Plasmodium falciparum 3D7, UniProt Q8IL32); type: functional, organism-based
Sequence of HSP90 (Q8IL32 whole entry): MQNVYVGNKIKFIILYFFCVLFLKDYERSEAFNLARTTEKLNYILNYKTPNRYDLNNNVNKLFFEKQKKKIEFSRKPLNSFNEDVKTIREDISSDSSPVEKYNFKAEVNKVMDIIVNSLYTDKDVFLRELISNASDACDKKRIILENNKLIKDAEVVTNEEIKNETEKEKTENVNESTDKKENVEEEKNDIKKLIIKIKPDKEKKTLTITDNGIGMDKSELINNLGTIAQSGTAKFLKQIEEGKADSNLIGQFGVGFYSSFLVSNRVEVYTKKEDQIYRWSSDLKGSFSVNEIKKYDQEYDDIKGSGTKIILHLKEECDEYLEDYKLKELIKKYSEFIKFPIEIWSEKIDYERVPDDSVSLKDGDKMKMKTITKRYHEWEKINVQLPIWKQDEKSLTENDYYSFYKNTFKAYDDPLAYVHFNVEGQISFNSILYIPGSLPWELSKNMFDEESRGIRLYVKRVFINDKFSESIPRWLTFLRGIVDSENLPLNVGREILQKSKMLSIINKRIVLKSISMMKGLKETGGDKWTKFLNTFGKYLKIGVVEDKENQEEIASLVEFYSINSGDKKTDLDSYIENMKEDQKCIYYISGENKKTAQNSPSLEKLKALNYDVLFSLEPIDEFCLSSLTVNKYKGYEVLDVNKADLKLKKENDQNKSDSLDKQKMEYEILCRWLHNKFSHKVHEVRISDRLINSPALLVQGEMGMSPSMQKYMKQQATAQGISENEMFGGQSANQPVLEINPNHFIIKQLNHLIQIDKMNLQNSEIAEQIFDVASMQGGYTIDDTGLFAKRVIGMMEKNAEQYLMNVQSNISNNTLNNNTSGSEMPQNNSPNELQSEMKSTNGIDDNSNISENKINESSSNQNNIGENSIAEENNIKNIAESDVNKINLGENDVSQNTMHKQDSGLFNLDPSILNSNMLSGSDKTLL

Vero [16] = experiment: cells; type: functional; settings: Chlorocebus sabaeus
[17] = cytotoxicity toward Colo320 cells – cell-based, CellTiter-Glo luminescence, IC50, dose response (AID 1117334); type: functional; settings: COLO 320

| Structure (SMILES) | IC50 [6] | IC50 [7] | IC50 [8] | IC50 [9] | IC50 [11] | IC50 [12] | IC50 [13] | also measured |
| --- | --- | --- | --- | --- | --- | --- | --- | --- |
| O=C(c1cccnc1)N1C[C@@H]2[C@H](c3ccccc31)[C@H](CO)N2CC1CCCC1 | – | – | – | – | – | – | – | AC50 [1]: > 47 µM (inactive); AC50 [2]: > 47 µM (inactive); AC50 [3]: > 60 µM (inactive) |
| COc1ccc2c3c([nH]c2c1)[C@H](CO)N(C(C)=O)CC31CCN(S(=O)(=O)c2ccccc2)CC1 | – | – | – | – | – | – | – | AC50 [4]: 9.86 µM (active) |
| CC(C)c1c(C(=O)Nc2ccccc2)c(-c2ccccc2)c(-c2ccc(F)cc2)n1CC[C@@H](O)C[C@@H](O)CC(=O)O [ATORVASTATIN CALCIUM] | > 20 µM (inactive) | > 20 µM (inactive) | > 20 µM (inactive) | > 20 µM (inactive) | > 20 µM (inactive) | > 20 µM (inactive) | 4.79 µM (active) | IC50 [5]: > 10 µM (inactive); IC50 [10]: > 10 µM (inactive) |
| Oc1c(Br)cc(Br)c2cccnc12 [BROXYQUINOLINE] | 0.132 µM (active) | 0.163 µM (active) | 0.193 µM (active) | 0.366 µM (active) | 5.25 µM (inactive) | 0.157 µM (active) | 0.183 µM (active) | AC50 [14]: 0.7 µM (active); IC50 (Vero [15]): > 25 µM (active); AC50 (HSP90): 0.373 µM (active); CC50 (Vero [16]): 18.7 µM (active); IC50 [17]: 0.114 µM (active) |
